Data from patent EP4483954A1 (Masarykova Univerzita, priority 2023, dated 2025).

Target: T1, Haspin (h) (Homo sapiens, UniProt Q8TF76)
T1 construct: purchased Eurofins (KinaseProfiler)
T1 sequence (Q8TF76 1-798): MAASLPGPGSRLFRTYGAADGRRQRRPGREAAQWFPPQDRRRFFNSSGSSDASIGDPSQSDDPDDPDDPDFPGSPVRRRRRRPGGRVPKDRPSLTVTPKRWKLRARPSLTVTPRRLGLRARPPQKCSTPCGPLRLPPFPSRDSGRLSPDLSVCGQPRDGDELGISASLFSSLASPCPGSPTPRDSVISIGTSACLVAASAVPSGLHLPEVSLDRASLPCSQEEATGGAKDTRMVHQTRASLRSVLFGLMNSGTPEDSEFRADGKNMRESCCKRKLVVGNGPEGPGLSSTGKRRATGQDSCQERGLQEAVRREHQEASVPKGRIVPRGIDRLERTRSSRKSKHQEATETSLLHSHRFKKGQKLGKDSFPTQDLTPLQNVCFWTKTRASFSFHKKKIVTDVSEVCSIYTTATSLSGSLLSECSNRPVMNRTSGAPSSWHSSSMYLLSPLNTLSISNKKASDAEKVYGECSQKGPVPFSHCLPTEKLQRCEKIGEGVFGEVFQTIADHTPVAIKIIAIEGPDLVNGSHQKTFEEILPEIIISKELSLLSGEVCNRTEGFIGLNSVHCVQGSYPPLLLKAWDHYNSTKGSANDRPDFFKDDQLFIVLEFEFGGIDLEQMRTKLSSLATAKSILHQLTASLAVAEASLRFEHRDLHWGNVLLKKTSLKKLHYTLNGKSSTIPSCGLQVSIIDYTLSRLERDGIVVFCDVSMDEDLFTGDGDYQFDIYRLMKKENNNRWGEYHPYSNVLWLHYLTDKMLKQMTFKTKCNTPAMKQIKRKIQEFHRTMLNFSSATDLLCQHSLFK
Assay: radiometric kinase assay (KinaseProfiler, Eurofins), Haspin
Assay type: biochemical
Settings: in vitro radiometric kinase assay, tested at 1 nM to 10 000 nM, no pre-incubation; read-out: inhibitory activities (IC50 values) Haspin
Protocol: The compounds were profiled in the radiometric assays (KinaseProfiler, Eurofins).
Briefly, kinases were diluted in the buffer shown below prior to addition to the reaction mix: • CDKL3, TAF1L: 20 mM Tris/HCl pH 8.5, 0.2 mM EDTA, 0.1% β-mercaptoethanol, 0.01% Brij-35, 5% glycerol, 1 mg/ml BSA; • Haspin: 15 mM MOPS, 0.75 mM EDTA, 0.0075% Brij-35, 3.75% Glycerol, 150 mM NaCl, 0.1% β-mercaptoethanol, 1 mg/mLBSA; • CDKL4, CLK2, PIM1, TRB2: […], 1 mM EDTA, 0.01% Brij-35, 5% Glycerol, 0.1% β-mercaptoethanol, 1 mg/mL BSA.
All compounds were prepared to 50x final assay concentration in 100% DMSO. This working stock of the compound was added to the assay well as the first component in the reaction, followed by the remaining components as detailed in the general assay protocols below. There was no pre-incubation step between the compound and the kinase prior to initiation of the reaction.
Haspin (h) was incubated with 8 mM MOPS pH 7.0, 0.2 mM EDTA, 500 µM RARTLSFAEPG (SEQ ID NO. 3), 10 mM magnesium acetate and γ-^33P-ATP (specific activity and concentration as required). The reaction was initiated by the addition of the Mg/ATP mix. After incubation for 40 minutes at room temperature, the reaction was stopped by the addition of phosphoric acid to a concentration of 0.5%. An aliquot of the reaction was then spotted onto a filter and washed four times for 4 minutes in 0.425% phosphoric acid and once in methanol prior to drying and scintillation counting.
Kinase activity data were expressed as the percent remaining kinase activity in tested samples compared to the vehicle (DMSO) reactions. The compounds were tested at the following concentrations: 1 nM, 3 nM, 10 nM, 30 nM, 100 nM, 300 nM, 1000 nM, 3000 nM, and 10 000 nM; IC50 values and curve fits were then obtained.

| SMILES | IC50 |
| --- | --- |
| c1cc(-c2csc3ccc(Nc4cn[nH]c4)nc23)ccn1 [Preparative Example 98, N-(1H-pyrazol-4-yl)-3-(pyridin-4-yl)thieno[3,2-b]pyridin-5-amine] | 20 to 99 nM |
| c1cnc(-c2ccc3scc(-c4ccc5ncnn5c4)c3n2)nc1 [Preparative Example 130, 3-([1,2,4]triazolo[1,5-a]pyridin-6-yl)-5-(pyrimidin-2-yl)thieno[3,2-b]pyridine] | 500 to 3000 nM |
| Cc1ccc(S(=O)(=O)n2ccc3c(-c4csc5ccc(-c6cnn(C)c6)nc45)ccnc32)cc1 [Preparative Example 44, 5-(1-methyl-1H-pyrazol-4-yl)-3-(1-tosyl-1H-pyrrolo[2,3-b]pyridin-4-yl)thieno[3,2-b]pyridine] | 3000 to 10000 nM |
| CC(C)(C)OC(=O)N1CCO[C@H](COc2ccc3scc(-c4ccncc4)c3n2)C1 [Preparative Example 117, tert-butyl (S)-2-(((3-(pyridin-4-yl)thieno[3,2-b]pyridin-5-yl)oxy)-methyl)morpholine-4-carboxylate] | 3000 to 10000 nM |
| c1cc(-c2ccc3scc(-c4ccc5ncnn5c4)c3n2)ccn1 [Preparative Example 132, 3-([1,2,4]triazolo[1,5-a]pyridin-6-yl)-5-(pyridin-4-yl)thieno[3,2-b]pyridine] | 20 to 99 nM |
| Cn1nc(Nc2ccc3scc(-c4ccncc4)c3n2)cc1NC(=O)OC(C)(C)C [Preparative Example 103, tert-butyl (1-methyl-3-((3-(pyridin-4-yl)thieno[3,2-b]pyridin-5-yl)-amino)-1H-pyrazol-5-yl)carbamate] | 3000 to 10000 nM |
| Cn1cc(C#N)c(Nc2ccc3scc(-c4ccns4)c3n2)n1 [Preparative Example 120, 3-((3-(isothiazol-5-yl)thieno[3,2-b]pyridin-5-yl)amino)-1-methyl-1H-pyrazole-4-carbonitrile] | 20 to 99 nM |
| CCOC(=O)c1cn(C)nc1Nc1ccc2scc(-c3ccnc(NC(=O)OC(C)(C)C)c3)c2n1 [Preparative Example 126, Ethyl 3-((3-(2-((tert-butoxycarbonyl)amino)pyridin-4-yl)thieno[3,2-b]pyridin-5-yl)amino)-1-methyl-1H-pyrazole-4-carboxylate] | 3000 to 10000 nM |
| CC(C)(C)OC(=O)N1CCOC(COc2ccc3scc(-c4ccncc4)c3n2)C1 (stereo not shown) [Preparative Example 116, tert-butyl 2-(((3-(pyridin-4-yl)thieno[3,2-b]pyridin-5-yl)oxy)-methyl)morpholine-4-carboxylate] | 3000 to 10000 nM |
| c1cnc2c(-c3ccc4scc(-c5ccncc5)c4n3)cnn2c1 [Preparative Example 115, 5-(pyrazolo[1,5-a]pyrimidin-3-yl)-3-(pyridin-4-yl)thieno[3,2-b]pyridine] | 500 to 3000 nM |
| Cn1cc(-c2ccc3scc(-c4ccc(F)cc4)c3n2)cn1 [Preparative Example 6, 3-(4-fluorophenyl)-5-(1-methyl-1H-pyrazol-4-yl)-thieno[3,2-b]pyridine] | 100 to 499 nM |
| Cn1cc(-c2ccc3scc(-c4ccnc(CNC(=O)OC(C)(C)C)c4)c3n2)cn1 | 3000 to 10000 nM |
| CSc1cn(C)nc1Nc1ccc2scc(-c3ccncc3)c2n1 [Preparative Example 106, N-(1-methyl-4-(methylthio)-1H-pyrazol-3-yl)-3-(pyridin-4-yl)thieno[3,2-b]pyridin-5-amine] | 100 to 499 nM |
| Cc1sc2ccc(-c3ccn(C)n3)nc2c1-c1ccncc1 [Preparative Example 143, 2-methyl-5-(1-methyl-1H-pyrazol-3-yl)-3-(pyridin-4-yl)thieno[3,2-b]pyridine] | 500 to 3000 nM |
| Cn1cc(-c2ccc3scc(-c4ccnc(N)c4)c3n2)cn1 [Preparative Example 25, 4-(5-(1-methyl-1H-pyrazol-4-yl)thieno[3,2-b]pyridin-3-yl)pyridin-2-amine] | 20 to 99 nM |
| CCOC(=O)c1cc(Nc2ccc3scc(-c4ccncc4)c3n2)nn1C [Preparative Example 105, Ethyl 1-methyl-3-((3-(pyridin-4-yl)thieno[3,2-b]pyridin-5-yl)amino)-1H-pyrazole-5-carboxylate] | 3000 to 10000 nM |
